US11141403B2, “Benzimidazoles and indoles as taro inhibitors” (MERCK SHARP & DOHME CORP., priority 2015, dated 2021)
“And” between values parts separate entries of the source, which are not always exact repeats. Equal entries are not always repeated.

Legend:
MRSA COL (MB 5393) = assay: In Vivo Murine Systemic Infection Model; set-up: species or system Staphylococcus aureus; settings: for Bacteria recovered: tid, neutropenic Balb/C mice, 24 h post challenge; for Fold reduction vs. vehicle alone: kidney cfu
Description: The murine systemic infection model determines the therapeutic efficacy of TarO inhibitor/β-lactam combinations in vivo. Staphylococci bacteria can cause a systemic infection and establish a robust growth in the kidneys of the infected animal. MRSA COL can establish an infection even in the presence of β-lactam antibiotic due MRSA COL resistance to β-lactam antibiotics.
Female Balb/C mice were rendered neutropenic (immune suppressed) with a single 250 mg/kg intraperitoneal (ip) dose of cyclophosphamide on […]. MRSA COL (MB 5393) was grown for 16 hours in trypticase soy broth (TSB) at 37° C. and 0.5 mL of diluted culture (˜1×10^4 cfu) was administered intraperitoneal (IP). The TarO inhibitor and β-lactam antibiotic were administered alone or in combination by subcutaneous route at 2, 5 and 8 hr. post challenge (sc, tid). Twenty four hours post challenge mice were euthanized and the kidneys harvested, weighed, homogenized and plated to measure the total number of bacteria recovered as colony forming unit (CFU) remaining in compound treated groups as compared to vehicle (saline) or β-lactam antibiotic alone groups (statistical analyses was determined by one way ANOVA).

MRSA COL (MB5393) = assay: TarO Inhibitor/β-Lactam Synergy Assay; type: cell-based, Staphylococcus aureus; settings: 20 hours; for IC95: Staphylococcus aureus, TarO inhibitor alone, OD600, 95% growth inhibition, read-out: MITC95 TarO inhibitor alone, Bacteria: SA_MB5393; for MITC95 TarO inhibitor + 4 μg/mL IPM; Bacteria: SA_MB5393: in combination with 4 μg/mL imipenem; for MITC95 TarO inhibitor + 4 μg/mL IPM; Bacteria: SA_MB5393 / MITC95 TarO inhibitor + 8 μg/mL DCX; Bacteria: SA_MB5393: OD600; for MITC95 TarO inhibitor + 8 μg/mL DCX; Bacteria: SA_MB5393: in combination with 8 μg/mL dicloxacillin
Description: The TarO inhibitor/β-lactam synergy assay was performed to measure the re-sensitization of methicillin-resistant Staphylococci bacteria (MB5393: MRSA COL) to β-lactam antibiotics by TarO inhibitors. MRSA COL is a hospital-acquired penicillinase-negative clinically isolated strain commonly used in Staphylococcus aureus studies and is fully resistant to the antimicrobial bioactivity of β-lactam antibiotics, including but not limited to imipenem and dicloxacillin. […] MRSA COL is fully refractory to β-lactam antibiotic effect at the current clinical breakpoint concentrations and as such MRSA COL is fully viable at these concentrations.
The β-lactam antibiotic concentration was fixed at the clinical breakpoint (imipenem 4 μg/ml or dicloxacillin 8 μg/ml) and the TarO inhibitors were titrated by 2 fold starting from the highest concentration of 200 μM with final DMSO concentration of 2% in the assay. 5×10^5 colony forming unit of MRSA COL in cation-adjusted Mueller Hinton broth (CAMHB) was then mixed and the assay plate was incubated for 20 hours at 37° C. without shaking. After 20 hours, the optical density at 600 nm (OD600) was read for all wells to determine relative growth of MRSA COL.

SMILES | IC95 (MRSA COL (MB5393)) [µM] | MITC95 TarO inhibitor + 4 μg/mL IPM; Bacteria: SA_MB5393 (MRSA COL (MB5393)) [µM] | MITC95 TarO inhibitor + 8 μg/mL DCX; Bacteria: SA_MB5393 (MRSA COL (MB5393)) [µM] | further results
CC1(C)[C@@H]2CC[C@@]1(C)[C@H](NC(=O)CCn1c(C3CCCCC3)nc3ccccc31)C2 [Example 37, 3-(2-cyclohexyl-1H-benzimidazol-1-yl)-N-[(1R,2R,4R)-1,7,7-trimethylbicyclo[2.2.1]hept-2-yl]propanamide] | > 200 | 1.69 | 12.50 | Bacteria recovered (MRSA COL (MB 5393); Example 37 (100 mg/kg) + imipenem (5 mg/kg) sc): 2.6×10^4 cfu/g kidney; Fold reduction vs. vehicle alone (MRSA COL (MB 5393); Example 37 (100 mg/kg) + imipenem (5 mg/kg)): 730 and 730.8; Bacteria recovered (MRSA COL (MB 5393); Example 37 alone (100 mg/kg) sc): 1.5×10^7 cfu/g kidney; Fold reduction vs. vehicle alone (MRSA COL (MB 5393); Example 37 alone (100 mg/kg)): 1.3
CCN(C(=O)CCn1c(C2CCCN(c3ccccn3)C2)nc2ccccc21)C1CCCCC1 (stereo not shown) [Example 48, N-cyclohexyl-N-ethyl-3-[2-(1-pyridin-2-ylpiperidin-3-yl)-1H-benzimidazol-1-yl]propanamide] | > 200 | 1.56 | 50 | 
CCCOC(=O)N1CC(c2nc3ccccc3n2CCC(=O)N(CC)C2CCCCC2)CCC1C (stereo not shown) [Example 49, propyl 5-(1-{3-[cyclohexyl(ethyl)amino]-3-oxopropyl}-1H-benzimidazol-2-yl)-2-methylpiperidine-1-carboxylate] | 100 | 0.78 | 6.25 | 
CCN(C(=O)CCn1c(C2CCC(C)N(c3nccc(OC)n3)C2)nc2ccccc21)C1CCCCC1 (stereo not shown) [Example 50, N-cyclohexyl-N-ethyl-3-{2-[1-(4-methoxypyrimidin-2-yl)-6-methylpiperidin-3-yl]-1H-benzimidazol-1-yl}propanamide] | 100 | 0.20 | 1.56 | 
CCCOC(=O)N1CCCC(c2nc3ccccc3n2CCC(=O)N(CC)C2CCCCC2)C1 (stereo not shown) [Example 51, Propyl 3-(1-{3-[cyclohexyl(ethyl)amino]-3-oxopropyl}-1H-benzimidazol-2-yl)piperidine-1-carboxylate] | 100 | 0.39 | 3.13 | 
CCN(C(=O)CCn1c(C2CCCN(c3nccc(C)n3)C2)nc2ccccc21)C1CCCCC1 (stereo not shown) [Example 52, N-cyclohexyl-N-ethyl-3-{2-[1-(4-methylpyrimidin-2-yl)piperidin-3-yl]-1H-benzimidazol-1-yl}propanamide] | 100 | 1.56 | 6.25 | 
CCN(C(=O)CCn1c(C2CCCN(C(=O)OC(C)C)C2)nc2ccccc21)C1CCCCC1 (stereo not shown) [Example 53, 1-methylethyl 3-(1-{3-[cyclohexyl(ethyl)amino]-3-oxopropyl}-1H-benzimidazol-2-yl)piperidine-1-carboxylate] | 100 | 1.56 | 6.25 | 
CCN(C(=O)CCn1c(N2CCC(F)(F)CC2)nc2ccccc21)C1CCCCC1 [Example 55, N-cyclohexyl-3-(2-(4,4-difluoropiperidin-1-yl)-1H-benzo[d]imidazol-1-yl)-N-ethylpropanamide] | > 200 | 1.37 | 7.81 | 
CCN(C(=O)CCn1c(N2CCC(C(F)F)CC2)nc2ccccc21)C1CCCCC1 [Example 56, N-cyclohexyl-3-{2-[4-(difluoromethyl)piperidin-1-yl]-1H-benzimidazol-1-yl}-N-ethylpropanamide] | > 200 | 1.17 | 4.69 | 
CCN(C(=O)CCn1c(N2CCC(C)CC2)nc2ccccc21)C1CCCCC1 [Example 57, N-cyclohexyl-N-ethyl-3-[2-(4-methylpiperidin-1-yl)-1H-benzimidazol-1-yl]propanamide] | > 200 | 1.30 | 26 | 
CCN(C(=O)CCn1c(N2CCC(C(C)(C)C)CC2)nc2ccccc21)C1CCCCC1 [Example 58, 3-[2-(4-tert-butylpiperidin-1-yl)-1H-benzimidazol-1-yl]-N-cyclohexyl-N-ethylpropanamide] | > 200 | 0.02 | 0.13 | 
CCN(C(=O)CCn1c(N2CCC[C@H](NC(=O)OC(C)(C)C)C2)nc2ccccc21)C1CCCCC1 [Example 59, tert-butyl [(3S)-1-(1-{3-[cyclohexyl(ethyl)amino]-3-oxopropyl}-1H-benzimidazol-2-yl)piperidin-3-yl]carbamate] | > 200 | 50 | 150 | 
CCN(C(=O)CCn1c(CN2CCC(C(C)(C)C)CC2)nc2ccccc21)C1CCCCC1 [Example 60, 3-{2-[(4-tert-butylpiperidin-1-yl)methyl]-1H-benzimidazol-1-yl}-N-cyclohexyl-N-ethylpropanamide] | > 200 | 0.78 | 6.25 | 
CCC1CCN(Cc2nc3cc(C)ccc3n2CCC(=O)N(CC)C2CCCCC2)CC1 [Example 61, N-cyclohexyl-N-ethyl-3-{2-[(4-ethylpiperidin-1-yl)methyl]-5-methyl-1H-benzimidazol-1-yl}propanamide] | 50 | 6.25 | 25 | 
CCC1CCN(Cc2nc3ccccc3n2CCC(=O)N(CC)C2CCCCC2)CC1 [Example 62, N-cyclohexyl-N-ethyl-3-{2-[(4-ethylpiperidin-1-yl)methyl]-1H-benzimidazol-1-yl}propanamide] | > 200 | 6.25 | 25 | 
CC1CCN(C(=O)CCn2c(C3CCCCC3)nc3ccccc32)CC1 [Example 63, 3-(2-cyclohexyl-1H-benzo[d]imidazol-1-yl)-1-(4-methylpiperidin-1-yl)propan-1-one] | > 200 | 18.75 |  | 
CCN(C(=O)CCn1c(C2CCCCC2)cc2ccccc21)C1CCCCC1 [Example 64, N-cyclohexyl-3-(2-cyclohexyl-1H-indol-1-yl)-N-ethylpropanamide] | > 200 | 6.20 |  | 
C[C@@H](O)[C@H]1C(=O)N2C(C(=O)O)=C(SCCN=CN)C[C@H]12 [imipenem, reference compound] |  |  |  | Bacteria recovered (MRSA COL (MB 5393); Imipenem alone (5 mg/kg) sc): 1.0 × 10^6 cfu/g kidney; Fold reduction vs. vehicle alone (MRSA COL (MB 5393); Imipenem alone (5 mg/kg)): 19
